Experimental data as given in patent US20210298307A1 (priority 2020, published 2021).
Read-outs that look alike come from different tables or passages of the source. Marks after values point to notes of the source that are not given here.

Assays:
Ralstonia solanacearum = type: in vivo; settings: beef tomato, foliar spray at 3 and 10 dpi, 5 mg/L IBA and/or 15 mg/L Kinetin in 0.1% (v/v) Tween 80; for Severity score at days post infection (dpi): 9 / Severity score at days post infection (dpi): 11 / Severity score at days post infection (dpi): 13: 0-5 disease scale, mean n=12; for Severity score at days post infection (dpi): 9: 9 dpi; for Severity score at days post infection (dpi): 11: 11 dpi; for Severity score at days post infection (dpi): 13 / Survival Rate (13 dpi): 13 dpi; for Survival Rate (13 dpi): n=12
R. solanacearum [1] = type: in vivo, Ralstonia solanacearum; settings: beef tomato, soil drench at 3 and 10 dpi, 5 mg/L IBA and/or 15 mg/L Kinetin; for Severity score at days post infection (dpi): 9 / Severity score at days post infection (dpi): 11 / Severity score at days post infection (dpi): 13: 0-5 disease scale, mean n=12; for Severity score at days post infection (dpi): 9: 9 dpi; for Severity score at days post infection (dpi): 11: 11 dpi; for Severity score at days post infection (dpi): 13 / Survival Rate (13 dpi): 13 dpi; for Survival Rate (13 dpi): n=12
R. solanacearum [2] = type: in vivo, Ralstonia solanacearum; settings: beef tomato, soil drench before inoculation and at 3 and 10 dpi, 5 mg/L IBA and/or 20 mg/L Kinetin; for Severity score at days post infection (dpi): 9 / Severity score at days post infection (dpi): 11 / Severity score at days post infection (dpi): 13: 0-5 disease scale, mean n=12; for Severity score at days post infection (dpi): 9: 9 dpi; for Severity score at days post infection (dpi): 11: 11 dpi; for Severity score at days post infection (dpi): 13 / Survival Rate (13 dpi): 13 dpi; for Survival Rate (13 dpi): n=12

| SMILES | Severity score at days post infection (dpi): 9 (Ralstonia solanacearum) | Severity score at days post infection (dpi): 11 (Ralstonia solanacearum) | Severity score at days post infection (dpi): 13 (Ralstonia solanacearum) | Survival Rate (13 dpi) (Ralstonia solanacearum) [%] | Severity score at days post infection (dpi): 9 (R. solanacearum [1]) | Severity score at days post infection (dpi): 11 (R. solanacearum [1]) | Severity score at days post infection (dpi): 13 (R. solanacearum [1]) | Survival Rate (13 dpi) (R. solanacearum [1]) [%] | Severity score at days post infection (dpi): 9 (R. solanacearum [2]) | Severity score at days post infection (dpi): 11 (R. solanacearum [2]) | Severity score at days post infection (dpi): 13 (R. solanacearum [2]) | Survival Rate (13 dpi) (R. solanacearum [2]) [%] |
| --- | --- | --- | --- | --- | --- | --- | --- | --- | --- | --- | --- | --- |
| c1coc(CNc2ncnc3nc[nH]c23)c1 [Kinetin, N6-furfuryladenine] | 0.42 | 2.08 | 3.17 | 58 | 0.25* | 1.08* | 2.58 | 75 | 0.83 | 1.42 | 2.08* | 75 |
| O=C(O)CCCc1c[nH]c2ccccc12 [IBA, indole-3-butyric acid] | 0.25* | 2.50 | 3.25 | 58 | 0.25* | 1.00* | 2.50 | 67 | 0.92 | 1.58 | 2.17* | 75 |
